The results in this text go back to BindingDB's records for doi:10.1016/s0223-5234(00)01171-5 (Clinical Research Institute of Montreal, 2000).

Values joined by “and” are separate entries in the source; they are usually repeats but may differ in a detail not shown here. Equal values may be shown once.

Assay [1] addresses Kappa-type opioid receptor (Cavia porcellus, UniProt P41144).
The next assay deals with Mu-type opioid receptor (Cavia porcellus, UniProt P97266).
In assay [2] the target is Delta-type opioid receptor (Mus musculus, UniProt P32300).
Chain of Delta-type opioid receptor (P32300 whole entry): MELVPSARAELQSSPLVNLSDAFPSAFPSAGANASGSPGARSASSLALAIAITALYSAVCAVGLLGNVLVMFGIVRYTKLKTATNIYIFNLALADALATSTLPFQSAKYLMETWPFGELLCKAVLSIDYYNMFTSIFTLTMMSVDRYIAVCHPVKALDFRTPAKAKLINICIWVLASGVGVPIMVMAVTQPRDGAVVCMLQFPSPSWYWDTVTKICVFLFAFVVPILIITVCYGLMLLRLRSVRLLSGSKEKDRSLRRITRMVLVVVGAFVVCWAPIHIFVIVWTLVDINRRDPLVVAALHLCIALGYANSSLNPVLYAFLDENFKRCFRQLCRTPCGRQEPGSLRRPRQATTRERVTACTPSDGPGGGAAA

Chain of Kappa-type opioid receptor (P41144 whole entry): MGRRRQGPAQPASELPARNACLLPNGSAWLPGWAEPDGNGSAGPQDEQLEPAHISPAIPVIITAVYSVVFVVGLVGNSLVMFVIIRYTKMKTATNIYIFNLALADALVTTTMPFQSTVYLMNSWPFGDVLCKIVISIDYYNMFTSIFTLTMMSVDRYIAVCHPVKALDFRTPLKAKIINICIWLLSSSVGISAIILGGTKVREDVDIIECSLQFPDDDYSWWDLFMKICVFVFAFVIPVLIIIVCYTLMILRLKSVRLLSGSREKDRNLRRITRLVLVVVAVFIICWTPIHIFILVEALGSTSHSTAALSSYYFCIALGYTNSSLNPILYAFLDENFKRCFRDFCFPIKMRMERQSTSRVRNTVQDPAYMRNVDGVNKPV
Chain of Mu-type opioid receptor (P97266 whole entry): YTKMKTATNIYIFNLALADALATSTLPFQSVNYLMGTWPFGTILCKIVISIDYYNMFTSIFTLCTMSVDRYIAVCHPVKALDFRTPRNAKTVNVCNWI

As a reminder, the Ki is the dissociation constant of the complex between target and ligand, obtained from inhibition or displacement. Read a low Ki as higher affinity. As to `Cc1cc(O)cc(C)c1C[C@H](N)C(=O)N[C@H](CCCN=C(N)N)C(=O)N[C@@H](Cc1ccccc1)C(=O)N[C@@H](CCCN)C(N)=O` [Dmt-d-Arg-Phe-Orn-NH2], the results for the Ki (in assay [1]; at Mu-type opioid receptor; in assay [2]) were 26.3 nM, 0.151 nM and 1240 nM, respectively.

Consider `Cc1cc(O)cc(C)c1C[C@H](N)C(=O)N[C@H](CCCN=C(N)N)C(=O)N[C@@H](Cc1ccccc1)C(=O)N[C@@H](CCN)C(N)=O` [H-Dmt-D-Arg-Phe-A2bu-NH2], for which the Ki in assay [1] amounted to 47.5 nM; on Mu-type opioid receptor, 0.803 nM; in assay [2], 6130 nM.

As to `Cc1cc(O)ccc1C[C@H](N)C(=O)N[C@H](CCCN=C(N)N)C(=O)N[C@@H](Cc1ccccc1)C(=O)N[C@@H](CCCCN)C(N)=O` [H-Hmt-D-Arg-Phe-Lys-NH2 II], the Ki in assay [2] is > 10000 nM and 2320 nM.

`NCCCC[C@H](NC(=O)[C@H](Cc1ccccc1)NC(=O)[C@@H](CCCN=C(N)N)NC(=O)[C@@H](N)Cc1ccc(O)cc1)C(N)=O` [NSC_122222]: the Ki in assay [1] was determined as 4230 nM; on Mu-type opioid receptor it was 1.69 nM.

On to `CN[C@@H](Cc1c(C)cc(O)cc1C)C(=O)N[C@H](CCCN=C(N)N)C(=O)N[C@@H](Cc1ccccc1)C(=O)N[C@@H](CCCCN)C(N)=O` [Tmt-D-Arg-Phe-Lys-NH2], for which the Ki in assay [1] worked out at 46.1 nM; on Mu-type opioid receptor, 0.192 nM; in assay [2], 543 nM.
